One compound from publication PMC5218480 (PLoS ONE, 2017) can be followed below.

For the experiment, the system named is MV-4-11 cells. Briefly: Gene expression microarray analysis (Affymetrix PrimeView) and GSEA. Type of experiment: cell-based, human. Details: RFU PODN (11730768_x_at) / Fold change /veh PODN (11730768_x_at) / RFU LINC00158 (11744669_a_at) / Fold change /veh LINC00158 (11744669_a_at) / RFU DUSP10 (11751237_a_at) / Fold change /veh DUSP10 (11751237_a_at) / RFU ID3 (11757404_x_at) / Fold change /veh ID3 (11757404_x_at) / RFU PLEKHG5 (11737974_s_at) / Fold change /veh PLEKHG5 (11737974_s_at) / RFU LRRC4B (11730491_at) / Fold change /veh LRRC4B (11730491_at) / RFU GIMAP4 (11747438_a_at) / Fold change /veh GIMAP4 (11747438_a_at) / RFU KRT8 (11758183_x_at) / Fold change /veh KRT8 (11758183_x_at) / RFU CNN1 (11734310_a_at) / Fold change /veh CNN1 (11734310_a_at) / RFU VPS37D (11726825_at) / Fold change /veh VPS37D (11726825_at) / RFU C10orf10 (11716522_x_at) / Fold change /veh C10orf10 (11716522_x_at) / RFU KIR2DL2 /// KIR2DL4 /// KIR2DL5A /// KIR2DL5B /// KIR2DS1 /// KIR2DS2 /// KIR2DS3 /// KIR2DS4 /// KIR3DL3 /// KIR3DL3 /// KIR3DS1 (11738374_at) / Fold change /veh KIR2DL2 /// KIR2DL4 /// KIR2DL5A /// KIR2DL5B /// KIR2DS1 /// KIR2DS2 /// KIR2DS3 /// KIR2DS4 /// KIR3DL3 /// KIR3DL3 /// KIR3DS1 (11738374_at) / RFU C1QL1 (11718748_at) / Fold change /veh C1QL1 (11718748_at) / RFU TMPRSS4 (11747572_a_at) / Fold change /veh TMPRSS4 (11747572_a_at) / RFU HAMP (11756126_x_at) / Fold change /veh HAMP (11756126_x_at) / RFU RNFT2 (11725882_a_at) / Fold change /veh RNFT2 (11725882_a_at) / RFU NR4A2 (11747474_a_at) / Fold change /veh NR4A2 (11747474_a_at) / RFU ABCC12 (11746883_a_at) / Fold change /veh ABCC12 (11746883_a_at) / RFU TMEM136 (11760407_x_at) / Fold change /veh TMEM136 (11760407_x_at) / RFU CLDN22 /// WWC2 (11732394_at) / Fold change /veh CLDN22 /// WWC2 (11732394_at) / RFU HLA-DPB1 (11760878_x_at) / Fold change /veh HLA-DPB1 (11760878_x_at) / RFU SPINT1 (11716480_a_at) / Fold change /veh SPINT1 (11716480_a_at) / RFU GAP43 (11754022_s_at) / Fold change /veh GAP43 (11754022_s_at) / RFU A4GNT (11735810_at) / Fold change /veh A4GNT (11735810_at) / RFU PRB3 (11715151_x_at) / Fold change /veh PRB3 (11715151_x_at) / RFU TUBB4B (11761932_at) / Fold change /veh TUBB4B (11761932_at) / RFU CAPN14 (11732068_a_at) / Fold change /veh CAPN14 (11732068_a_at) / RFU TMCC2 (11721928_a_at) / Fold change /veh TMCC2 (11721928_a_at) / RFU IRGQ (11745062_a_at) / Fold change /veh IRGQ (11745062_a_at) / RFU FAM174B (11720279_a_at) / Fold change /veh FAM174B (11720279_a_at) / RFU TMPRSS4 (11748680_a_at) / Fold change /veh TMPRSS4 (11748680_a_at) / RFU FAM212B (11763350_a_at) / Fold change /veh FAM212B (11763350_a_at) / RFU PLEKHG5 (11743358_a_at) / Fold change /veh PLEKHG5 (11743358_a_at) / RFU ZSCAN30 (11745921_a_at) / Fold change /veh ZSCAN30 (11745921_a_at) / RFU CMKLR1 (11741424_a_at) / Fold change /veh CMKLR1 (11741424_a_at) / RFU LOC101060620 /// MAPK8IP1 (11723275_at) / Fold change /veh LOC101060620 /// MAPK8IP1 (11723275_at) / RFU SPTSSB (11747773_x_at) / Fold change /veh SPTSSB (11747773_x_at) / RFU PRSS12 (11739890_at) / Fold change /veh PRSS12 (11739890_at) / RFU BIN1 (11741810_x_at) / Fold change /veh BIN1 (11741810_x_at) / RFU WNT11 (11732464_a_at) / Fold change /veh WNT11 (11732464_a_at) / RFU C10orf10 (11716521_a_at) / Fold change /veh C10orf10 (11716521_a_at) / RFU C5orf56 (11738089_at) / Fold change /veh C5orf56 (11738089_at) / RFU CYB561 (11721691_x_at) / Fold change /veh CYB561 (11721691_x_at) / RFU ANKRD19P (11752326_a_at) / Fold change /veh ANKRD19P (11752326_a_at) / RFU OR2T12 /// OR2T33 /// OR2T8 (11738714_s_at) / Fold change /veh OR2T12 /// OR2T33 /// OR2T8 (11738714_s_at) / RFU VCAN (11748164_a_at) / Fold change /veh VCAN (11748164_a_at) / RFU JSRP1 (11732532_at) / Fold change /veh JSRP1 (11732532_at) / RFU KRTAP10-11 (11738290_x_at) / Fold change /veh KRTAP10-11 (11738290_x_at) / RFU MYO3A (11730013_a_at) / Fold change /veh MYO3A (11730013_a_at) / RFU EBF3 (11725865_a_at) / Fold change /veh EBF3 (11725865_a_at) / RFU CAMK2N1 (11719241_x_at) / Fold change /veh CAMK2N1 (11719241_x_at) / RFU C5orf56 (11738088_a_at) / Fold change /veh C5orf56 (11738088_a_at) / RFU OLFML3 (11715873_a_at) / Fold change /veh OLFML3 (11715873_a_at) / RFU LOC100653217 /// NTM (11731650_a_at) / Fold change /veh LOC100653217 /// NTM (11731650_a_at) / RFU MAPK11 (11762145_a_at) / Fold change /veh MAPK11 (11762145_a_at) / RFU FIZ1 (11724087_x_at) / Fold change /veh FIZ1 (11724087_x_at) / RFU OASL (11726364_x_at) / Fold change /veh OASL (11726364_x_at) / RFU SOX15 (11748057_x_at) / Fold change /veh SOX15 (11748057_x_at) / RFU CD79A (11719716_a_at) / Fold change /veh CD79A (11719716_a_at) / RFU HIST1H1D (11736915_at) / Fold change /veh HIST1H1D (11736915_at) / RFU CASKIN2 (11723855_a_at) / Fold change /veh CASKIN2 (11723855_a_at) / RFU LOC730098 (11760151_x_at) / Fold change /veh LOC730098 (11760151_x_at) / RFU OR4N2 (11742367_at) / Fold change /veh OR4N2 (11742367_at) / RFU PRRT2 (11749266_a_at) / Fold change /veh PRRT2 (11749266_a_at) / RFU SNX32 (11753110_a_at) / Fold change /veh SNX32 (11753110_a_at) / RFU CDHR5 (11726645_a_at) / Fold change /veh CDHR5 (11726645_a_at) / RFU RCAN1 (11760418_a_at) / Fold change /veh RCAN1 (11760418_a_at) / RFU FAM167A (11723789_a_at) / Fold change /veh FAM167A (11723789_a_at) / RFU FAM26E (11764081_at) / Fold change /veh FAM26E (11764081_at) / RFU ISYNA1 (11749810_s_at) / Fold change /veh ISYNA1 (11749810_s_at) / RFU ACY1 (11761880_at) / Fold change /veh ACY1 (11761880_at) / RFU 11764098_at / Fold change /veh 11764098_at / RFU SAMD14 (11745864_x_at) / Fold change /veh SAMD14 (11745864_x_at) / RFU NPB (11741838_a_at) / Fold change /veh NPB (11741838_a_at) / RFU TMPRSS6 (11731388_a_at) / Fold change /veh TMPRSS6 (11731388_a_at) / RFU KRTAP10-2 (11738614_at) / Fold change /veh KRTAP10-2 (11738614_at) / RFU ARHGAP8 /// PRR5-ARHGAP8 (11727945_x_at) / Fold change /veh ARHGAP8 /// PRR5-ARHGAP8 (11727945_x_at) / RFU KRTAP5-7 /// NADSYN1 (11734609_at) / Fold change /veh KRTAP5-7 /// NADSYN1 (11734609_at) / RFU RASL12 (11751679_a_at) / Fold change /veh RASL12 (11751679_a_at) / RFU CDKN2B (11736163_a_at) / Fold change /veh CDKN2B (11736163_a_at) / RFU PRF1 (11729649_at) / Fold change /veh PRF1 (11729649_at) / RFU, ZNF638 /// ZNF638-IT1 / Fold change vs veh, ZNF638 /// ZNF638-IT1 / RFU, PANK3 / Fold change vs veh, PANK3 / RFU, SH3YL1 / Fold change vs veh, SH3YL1 / RFU, ZEB2 / Fold change vs veh, ZEB2 / RFU, NRIP1 / Fold change vs veh, NRIP1 / RFU, PTTG1IP / Fold change vs veh, PTTG1IP / RFU, CAPN2 / Fold change vs veh, CAPN2 / RFU, MED14 / Fold change vs veh, MED14 / RFU, SNORA58 / Fold change vs veh, SNORA58 / RFU, C1orf63 / Fold change vs veh, C1orf63 / RFU, LRRFIP1 / Fold change vs veh, LRRFIP1 / RFU, NDUFAF7 / Fold change vs veh, NDUFAF7 / RFU, SLC12A2 / Fold change vs veh, SLC12A2 / RFU, IBTK / Fold change vs veh, IBTK / RFU, ESF1 / Fold change vs veh, ESF1 / Fold change vs veh, TMEM50B / RFU, TAOK1 / Fold change vs veh, TAOK1 / RFU, ACBD3 / Fold change vs veh, ACBD3 / RFU, TMA16 / Fold change vs veh, TMA16 / RFU, RWDD3 / Fold change vs veh, RWDD3 / RFU, BCAT1 / Fold change vs veh, BCAT1 / RFU, EDEM3 / Fold change vs veh, EDEM3 / RFU, TMEM33 / Fold change vs veh, TMEM33 / RFU, WDR75 / Fold change vs veh, WDR75 / RFU, AHCTF1 / Fold change vs veh, AHCTF1 / RFU, TFRC / Fold change vs veh, TFRC / RFU, ZDHHC17 / Fold change vs veh, ZDHHC17 / RFU, NOM1 / Fold change vs veh, NOM1 / RFU, ARL8B / Fold change vs veh, ARL8B / RFU, ZBTB11 / Fold change vs veh, ZBTB11 / RFU, TAMM41 / Fold change vs veh, TAMM41 / RFU, KIAA1704 /// LOC100996395 / Fold change vs veh, KIAA1704 /// LOC100996395 / RFU, ING1 / Fold change vs veh, ING1 / RFU, TRMT61B / Fold change vs veh, TRMT61B / RFU, FUBP3 / Fold change vs veh, FUBP3 / RFU, TP53 / Fold change vs veh, TP53 / RFU, TNKS2 / Fold change vs veh, TNKS2 / RFU, ZFP14 / Fold change vs veh, ZFP14 / RFU, ACTR2 / Fold change vs veh, ACTR2 / RFU, PPP3R1 / Fold change vs veh, PPP3R1 / RFU, PIK3R1 / Fold change vs veh, PIK3R1 / RFU, HNRNPA1 / Fold change vs veh, HNRNPA1 / RFU, RNF170 / Fold change vs veh, RNF170 / RFU, ZNF28 / Fold change vs veh, ZNF28 / RFU, RNGTT / Fold change vs veh, RNGTT / RFU, OGT / Fold change vs veh, OGT / RFU, BRD1 / Fold change vs veh, BRD1 / RFU, MARS / Fold change vs veh, MARS / RFU, ZNF655 / Fold change vs veh, ZNF655 / RFU, FAHD1 / Fold change vs veh, FAHD1 / RFU, BDP1 / Fold change vs veh, BDP1 / RFU, LRRCC1 / Fold change vs veh, LRRCC1 / RFU, ARID1A / Fold change vs veh, ARID1A / RFU, ZNF146 / Fold change vs veh, ZNF146 / RFU, ZNF330 / Fold change vs veh, ZNF330 / RFU, GPN3 / Fold change vs veh, GPN3 / RFU, C9orf123 / Fold change vs veh, C9orf123 / RFU, N4BP2L2 / Fold change vs veh, N4BP2L2 / RFU, ARFIP1 / Fold change vs veh, ARFIP1 / RFU, FAM179B / Fold change vs veh, FAM179B / RFU, BCL10 / Fold change vs veh, BCL10 / RFU, UHRF1BP1L / Fold change vs veh, UHRF1BP1L / RFU, BET1 / Fold change vs veh, BET1 / RFU, CNOT2 / Fold change vs veh, CNOT2 / RFU, ZNF268 / Fold change vs veh, ZNF268 / Fold change vs veh, ZNF507 / RFU, DGCR2 / Fold change vs veh, DGCR2 / RFU, WDSUB1 / Fold change vs veh, WDSUB1 / Fold change vs veh, HSP90B1 /// MIR3652 / RFU, ADSS / Fold change vs veh, ADSS / RFU, GK / Fold change vs veh, GK / RFU, ZNF148 / Fold change vs veh, ZNF148 / RFU, TAF9 / Fold change vs veh, TAF9 / RFU, SLC1A5 / Fold change vs veh, SLC1A5 / RFU, SLMO2 / Fold change vs veh, SLMO2 / RFU, ABCC4 / Fold change vs veh, ABCC4 / RFU, LOC101060439 /// RAP1B / Fold change vs veh, LOC101060439 /// RAP1B / RFU, RFX7 / Fold change vs veh, RFX7 / RFU, GTPBP10 / Fold change vs veh, GTPBP10 / RFU, CNEP1R1 / Fold change vs veh, CNEP1R1 / RFU, BIVM-ERCC5 /// ERCC5 / Fold change vs veh, BIVM-ERCC5 /// ERCC5 / RFU, ILF3 / Fold change vs veh, ILF3 / RFU 11762660_at / Fold change /veh 11762660_at / RFU VCAN (11757783_s_at) / Fold change /veh VCAN (11757783_s_at) / RFU DDX43 (11728927_at) / Fold change /veh DDX43 (11728927_at) / RFU KRT8 (11758188_x_at) / Fold change /veh KRT8 (11758188_x_at) / RFU NKD1 (11759106_at) / Fold change /veh NKD1 (11759106_at) / RFU SRD5A1 (11742802_a_at) / Fold change /veh SRD5A1 (11742802_a_at) / RFU TPSAB1 /// TPSB2 (11721975_s_at) / Fold change /veh TPSAB1 /// TPSB2 (11721975_s_at) / RFU GSTM3 (11746129_a_at) / Fold change /veh GSTM3 (11746129_a_at) / RFU IL23R (11737362_x_at) / Fold change /veh IL23R (11737362_x_at) / RFU TMEM51 (11727254_a_at) / Fold change /veh TMEM51 (11727254_a_at) / RFU PIWIL2 (11732686_x_at) / Fold change /veh PIWIL2 (11732686_x_at) / RFU ORM1 (11744905_x_at) / Fold change /veh ORM1 (11744905_x_at) / RFU CCDC152 (11743942_at) / Fold change /veh CCDC152 (11743942_at) / RFU ECM1 (11717891_a_at) / Fold change /veh ECM1 (11717891_a_at) / RFU IL23R (11748794_a_at) / Fold change /veh IL23R (11748794_a_at) / RFU TNFAIP8L3 (11732012_x_at) / Fold change /veh TNFAIP8L3 (11732012_x_at) / RFU MBOAT4 (11741988_at) / Fold change /veh MBOAT4 (11741988_at) / RFU 11764193_at / Fold change /veh 11764193_at / RFU TMEM53 (11763286_at) / Fold change /veh TMEM53 (11763286_at) / RFU MAGEB2 (11727129_at) / Fold change /veh MAGEB2 (11727129_at) / RFU TMEM200A (11744735_a_at) / Fold change /veh TMEM200A (11744735_a_at) / RFU CCDC152 (11751479_a_at) / Fold change /veh CCDC152 (11751479_a_at) / RFU FAM211A (11726209_a_at) / Fold change /veh FAM211A (11726209_a_at) / RFU RGS16 (11746705_a_at) / Fold change /veh RGS16 (11746705_a_at) / RFU VCAN (11755009_s_at) / Fold change /veh VCAN (11755009_s_at) / RFU RHOB (11743442_s_at) / Fold change /veh RHOB (11743442_s_at) / RFU RGS16 (11720943_a_at) / Fold change /veh RGS16 (11720943_a_at) / RFU RGS16 (11720944_at) / Fold change /veh RGS16 (11720944_at) / RFU, VPS4B / Fold change vs veh, VPS4B / RFU, CREB1 / Fold change vs veh, CREB1 / RFU, DNAJC13 / Fold change vs veh, DNAJC13 / RFU, GNAQ / Fold change vs veh, GNAQ / RFU, CDK5R1 / Fold change vs veh, CDK5R1 / RFU, ZRANB3 / Fold change vs veh, ZRANB3 / RFU, CUL4A / Fold change vs veh, CUL4A / RFU, CCNY / Fold change vs veh, CCNY / RFU, UFL1 / Fold change vs veh, UFL1 / RFU, COG3 / Fold change vs veh, COG3 / RFU, DIAPH2 / Fold change vs veh, DIAPH2 / RFU, SKA2 / Fold change vs veh, SKA2 / RFU, AFF3 / Fold change vs veh, AFF3 / RFU, LMF1 / Fold change vs veh, LMF1 / RFU, IPO11 / Fold change vs veh, IPO11 / RFU, DFFB / Fold change vs veh, DFFB / RFU, FOXP1 / Fold change vs veh, FOXP1 / RFU, CARD8 / Fold change vs veh, CARD8 / RFU, STRN3 / Fold change vs veh, STRN3 / RFU, ADK / Fold change vs veh, ADK / RFU, RASSF2 / Fold change vs veh, RASSF2 / RFU, WIPF1 / Fold change vs veh, WIPF1 / RFU, LARP1B / Fold change vs veh, LARP1B / RFU, RASA1 / Fold change vs veh, RASA1 / RFU, RB1 / Fold change vs veh, RB1 / RFU, PPFIA1 / Fold change vs veh, PPFIA1 / RFU, MAT2A / Fold change vs veh, MAT2A / RFU, CCT5 / Fold change vs veh, CCT5 / RFU, WDR92 / Fold change vs veh, WDR92 / RFU, CUX1 / Fold change vs veh, CUX1 / RFU, TTC7A / Fold change vs veh, TTC7A / RFU, TMEM135 / Fold change vs veh, TMEM135 / RFU, DEPTOR / Fold change vs veh, DEPTOR / RFU, CPM / Fold change vs veh, CPM / RFU, DNAJB6 / Fold change vs veh, DNAJB6 / RFU, CACNA2D3 / Fold change vs veh, CACNA2D3 / RFU, DTX4 / Fold change vs veh, DTX4 / RFU, TFCP2 / Fold change vs veh, TFCP2 / RFU, GMCL1 /// GMCL1P1 / Fold change vs veh, GMCL1 /// GMCL1P1 / RFU, AEBP2 / Fold change vs veh, AEBP2 / RFU, SNHG1 /// SNORD22 /// SNORD25 /// SNORD26 /// SNORD27 /// SNORD28 /// SNORD29 /// SNORD31 / Fold change vs veh, SNHG1 /// SNORD22 /// SNORD25 /// SNORD26 /// SNORD27 /// SNORD28 /// SNORD29 /// SNORD31 / Fold change (Aza/veh), C12orf56 (ProbeSet 11735607_a_at) / Fold change (ACY-1035/veh), C12orf56 (ProbeSet 11735607_a_at) / Fold change (Aza/veh), FGFR1OP (ProbeSet 11751329_s_at) / Fold change (ACY-1035/veh), FGFR1OP (ProbeSet 11751329_s_at) / Fold change (Aza/veh), VPS36 (ProbeSet 11739960_a_at) / Fold change (ACY-1035/veh), VPS36 (ProbeSet 11739960_a_at) / RFU SYPL1 (11715823_x_at) / Fold change /veh SYPL1 (11715823_x_at) / RFU IGFBP7 (11715501_s_at) / Fold change /veh IGFBP7 (11715501_s_at) / RFU REEP3 (11722064_at) / Fold change /veh REEP3 (11722064_at) / RFU IGLL1 (11728026_x_at) / Fold change /veh IGLL1 (11728026_x_at): dose or concentration left out as unconfirmed. To be noted: ProbeSet 11728443_a_at; LIST B.

Consider `Nc1ccc(-c2cccs2)cc1NC(=O)c1ccc2c(c1)cc(C1CC1)n2CCN1CCOCC1` [ACY-1035], for which the “Fold change vs veh, TAOK1” value amounted to 0.89.
